Consider five compounds from PubChem BioAssay AID424 (Public Access to Neuroactive & Anticonvulsant Chemical …, 2006).

A value given as a limit tells only on which side of the number the result lay.

A short description of test [1]: seizure model ED50 and toxic TD50 values – quantitative, MES, scMET, kindled rat, Frings mice, in vivo study, summary (AID 424).
Test [2] relates to mouse i.p. maximal electroshock seizure protection, ED50. The description is as above.
[3] abbreviates: measured here: kindled rat ED50.

Usually ED50 stands for the dose at which the effect has come halfway, by size or by number of responders. Broadly, the TD50 is the dose at which the toxic effect under study appears in half of the subjects. Read a low TD50 as harm at a small dose. With `CCC1(C)CC(=O)NC1=O` (configuration not stated), the ED50 in test [1] (Frings audiogenic mouse ED50) was 328 mg/kg; in test [1] (i.p. mouse scBic ED50) it was 272 mg/kg; in test [1] (i.p. mouse scMET ED50) it was 136 mg/kg; in test [1] (i.p. mouse scPic ED50), 226 mg/kg; in test [1] (i.p. rat MES ED50), above 220 mg/kg; in test [1] (oral mouse MES ED50), above 1000 mg/kg. In addition, the ED50 in test [1] (oral mouse scMET ED50) is 203 mg/kg; in test [1] (oral rat MES ED50) it was above 500 mg/kg; in test [1] (oral rat scMET ED50), 167 mg/kg. The values for the TD50 in test [1] (i.p. mouse neurotoxicity TD50) and in test [1] (oral rat toxicity TD50) were 341 mg/kg and above 500 mg/kg, respectively.
Regarding `CCN(CC)CC(=O)Nc1c(C)cccc1C`, the TD50 was found to be 65.1 mg/kg in test [1] (i.p. mouse neurotoxicity TD50) and 283 mg/kg in test [1] (oral rat toxicity TD50). The ED50 in test [1] (i.p. mouse scBic ED50) was above 70 mg/kg; in test [1] (i.p. mouse scMET ED50), above 66 mg/kg; in test [1] (i.p. mouse scPic ED50), above 70 mg/kg; in test [1] (oral mouse MES ED50) it was 21 mg/kg; in test [1] (oral mouse scMET ED50), above 140 mg/kg; in test [1] (oral rat MES ED50) it was 31.2 mg/kg. The ED50 in test [1] (oral rat scMET ED50) was above 250 mg/kg; in test [2], 14.4 mg/kg.
Turning to `O=C1CN=C(c2ccccc2Cl)c2cc([N+](=O)[O-])ccc2N1`, the 50% effective dose (ED50) in test [1] (Frings audiogenic mouse ED50) stood at 0.105 mg/kg; in test [1] (i.p. mouse scBic ED50), 0.039 mg/kg; in test [1] (i.p. mouse scMET ED50), 0.024 mg/kg; in test [1] (i.p. mouse scPic ED50) it was 0.074 mg/kg; in test [1] (i.p. rat MES ED50) it was 0.67 mg/kg; in test [1] (oral mouse MES ED50), 42.8 mg/kg. For the same compound, the ED50 in test [1] (oral mouse scMET ED50) was 0.03 mg/kg; in test [1] (oral rat MES ED50), 7.86 mg/kg; in test [1] (oral rat scMET ED50), 0.607 mg/kg; in test [2], 25.5 mg/kg; in test [2] (setting [3]) it was 0.79 mg/kg. The values for the TD50 in test [1] (i.p. mouse neurotoxicity TD50) and in test [1] (oral rat toxicity TD50) were 0.264 mg/kg and 2.38 mg/kg, respectively.
Turning to `CCC1(c2ccccc2)C(=O)NC(=O)NC1=O`, the values for the TD50 in test [1] (i.p. mouse neurotoxicity TD50) and in test [1] (oral rat toxicity TD50) were 45.5 mg/kg and 51 mg/kg, respectively. The ED50 in test [1] (i.p. mouse scBic ED50) came out at 37.7 mg/kg; in test [1] (i.p. mouse scMET ED50) it was 13.9 mg/kg; in test [1] (i.p. mouse scPic ED50), 27.5 mg/kg; in test [1] (i.p. rat MES ED50), 2.61 mg/kg; in test [1] (oral rat MES ED50) it was 8.26 mg/kg; in test [1] (oral rat scMET ED50) it was 26.1 mg/kg. The ED50 in test [2] was 11.3 mg/kg; in test [2] (setting [3]), 19.7 mg/kg.
Regarding `NC(=O)N1c2ccccc2C=Cc2ccccc21`, the ED50 is 11.2 mg/kg in test [1] (Frings audiogenic mouse ED50); above 50 mg/kg in test [1] (i.p. mouse scBic ED50); above 50 mg/kg in test [1] (i.p. mouse scMET ED50); 18.2 mg/kg in test [1] (i.p. mouse scPic ED50); 4.05 mg/kg in test [1] (i.p. rat MES ED50); 11.9 mg/kg in test [1] (oral mouse MES ED50). Besides, the ED50 in test [1] (oral mouse scMET ED50) is 40.9 mg/kg; in test [1] (oral rat MES ED50) it was 5.35 mg/kg; in test [1] (oral rat scMET ED50), above 250 mg/kg; in test [2], 7.81 mg/kg; in test [2] (setting [3]), 28.2 mg/kg. For the same compound, the TD50 in test [1] (i.p. mouse neurotoxicity TD50) was determined as 45.4 mg/kg; in test [1] (oral rat toxicity TD50) it was 364 mg/kg.
